According to ChEMBL document CHEMBL3758163, “Extended structure-activity study of thienopyrimidine-based EGFR inhibitors with evaluation of drug-like properties” (Eur J Med Chem, 2016):
Values after ≈ are worked out from the molar mass of the structure shown.

What was measured:
[1] = biological target: Serine/threonine-protein kinase B-raf (Homo sapiens) (UniProt P15056); test: Inhibition of BRAF (unknown origin) at 500 nM
[2] = biological target: T1, Serine/threonine-protein kinase Chk1 (Homo sapiens) (UniProt O14757); test: Inhibition of CHEK1 (unknown origin) at 500 nM
T1 sequence (whole entry): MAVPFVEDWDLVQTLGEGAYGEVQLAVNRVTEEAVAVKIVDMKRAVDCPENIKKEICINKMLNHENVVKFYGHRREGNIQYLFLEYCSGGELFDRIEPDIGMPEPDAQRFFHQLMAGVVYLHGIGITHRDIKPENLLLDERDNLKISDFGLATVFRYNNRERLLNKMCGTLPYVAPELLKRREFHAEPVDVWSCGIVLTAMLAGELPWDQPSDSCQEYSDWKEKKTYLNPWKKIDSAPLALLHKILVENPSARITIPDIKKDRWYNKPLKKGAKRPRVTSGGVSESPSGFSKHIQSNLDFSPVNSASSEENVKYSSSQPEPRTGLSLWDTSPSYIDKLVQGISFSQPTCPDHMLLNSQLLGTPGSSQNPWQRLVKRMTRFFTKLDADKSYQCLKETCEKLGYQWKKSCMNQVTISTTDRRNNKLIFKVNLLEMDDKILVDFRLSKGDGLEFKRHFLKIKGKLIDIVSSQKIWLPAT

[3] = biological target: Macrophage colony-stimulating factor 1 receptor (Homo sapiens) (UniProt P07333); test: Inhibition of CSF1R (unknown origin) at 500 nM
Macrophage colony-stimulating factor 1 receptor (Homo sapiens), sequence (P07333 whole entry): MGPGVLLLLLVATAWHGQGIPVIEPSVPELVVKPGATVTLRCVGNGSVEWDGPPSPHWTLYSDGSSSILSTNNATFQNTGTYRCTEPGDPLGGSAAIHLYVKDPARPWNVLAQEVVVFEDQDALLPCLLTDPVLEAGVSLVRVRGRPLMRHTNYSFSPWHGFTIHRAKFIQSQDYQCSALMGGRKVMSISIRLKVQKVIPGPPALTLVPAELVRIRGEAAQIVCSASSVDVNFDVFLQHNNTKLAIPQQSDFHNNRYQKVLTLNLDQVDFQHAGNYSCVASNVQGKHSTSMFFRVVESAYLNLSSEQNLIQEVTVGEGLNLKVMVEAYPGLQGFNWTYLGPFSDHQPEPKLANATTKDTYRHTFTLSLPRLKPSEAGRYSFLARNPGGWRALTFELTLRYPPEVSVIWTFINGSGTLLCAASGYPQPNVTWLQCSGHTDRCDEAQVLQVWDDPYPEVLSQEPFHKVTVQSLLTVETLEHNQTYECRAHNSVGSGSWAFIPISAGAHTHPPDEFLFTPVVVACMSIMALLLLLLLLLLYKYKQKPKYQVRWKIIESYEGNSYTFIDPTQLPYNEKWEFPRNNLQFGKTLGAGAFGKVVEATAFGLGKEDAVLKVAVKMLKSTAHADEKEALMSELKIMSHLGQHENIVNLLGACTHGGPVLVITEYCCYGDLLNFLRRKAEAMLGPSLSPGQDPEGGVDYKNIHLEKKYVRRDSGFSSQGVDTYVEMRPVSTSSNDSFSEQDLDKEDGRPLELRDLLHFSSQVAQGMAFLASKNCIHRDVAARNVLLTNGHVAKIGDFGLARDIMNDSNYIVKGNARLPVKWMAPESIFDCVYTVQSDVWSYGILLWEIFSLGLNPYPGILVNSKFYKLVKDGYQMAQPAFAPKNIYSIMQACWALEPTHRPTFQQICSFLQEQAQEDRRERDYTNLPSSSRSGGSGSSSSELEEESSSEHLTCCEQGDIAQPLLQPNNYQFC

[4] = biological target: Mast/stem cell growth factor receptor Kit (Homo sapiens) (UniProt P10721); test: Inhibition of KIT (unknown origin) at 500 nM
Mast/stem cell growth factor receptor Kit (Homo sapiens), sequence (P10721 whole entry): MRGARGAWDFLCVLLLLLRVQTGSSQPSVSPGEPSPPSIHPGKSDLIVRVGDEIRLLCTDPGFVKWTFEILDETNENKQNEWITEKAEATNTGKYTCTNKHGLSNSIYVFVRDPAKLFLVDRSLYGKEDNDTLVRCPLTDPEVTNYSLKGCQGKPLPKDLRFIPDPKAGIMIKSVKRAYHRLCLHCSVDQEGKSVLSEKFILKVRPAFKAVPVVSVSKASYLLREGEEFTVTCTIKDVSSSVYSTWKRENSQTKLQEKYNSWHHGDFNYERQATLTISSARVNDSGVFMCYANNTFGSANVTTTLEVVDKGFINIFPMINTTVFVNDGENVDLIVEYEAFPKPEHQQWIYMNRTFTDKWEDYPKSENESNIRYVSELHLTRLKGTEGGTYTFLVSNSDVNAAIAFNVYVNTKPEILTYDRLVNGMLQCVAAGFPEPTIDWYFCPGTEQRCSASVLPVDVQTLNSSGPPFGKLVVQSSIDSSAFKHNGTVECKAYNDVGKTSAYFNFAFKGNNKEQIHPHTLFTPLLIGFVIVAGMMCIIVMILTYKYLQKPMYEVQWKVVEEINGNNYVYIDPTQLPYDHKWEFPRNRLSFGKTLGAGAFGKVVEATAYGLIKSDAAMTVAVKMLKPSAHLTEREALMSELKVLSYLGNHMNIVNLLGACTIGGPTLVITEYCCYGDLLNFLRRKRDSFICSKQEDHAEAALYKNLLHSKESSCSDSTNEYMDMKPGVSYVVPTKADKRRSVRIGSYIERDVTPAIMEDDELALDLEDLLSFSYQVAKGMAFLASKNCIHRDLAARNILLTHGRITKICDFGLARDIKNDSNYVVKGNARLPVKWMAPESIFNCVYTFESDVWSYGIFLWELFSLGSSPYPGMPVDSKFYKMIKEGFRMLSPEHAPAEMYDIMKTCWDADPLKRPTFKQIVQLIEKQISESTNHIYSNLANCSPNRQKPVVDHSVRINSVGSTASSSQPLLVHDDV

[5] = biological target: T2, Serine/threonine-protein kinase Nek1 (Homo sapiens) (UniProt Q96PY6); test: Inhibition of NEK1 (unknown origin) at 500 nM
T2 sequence (whole entry): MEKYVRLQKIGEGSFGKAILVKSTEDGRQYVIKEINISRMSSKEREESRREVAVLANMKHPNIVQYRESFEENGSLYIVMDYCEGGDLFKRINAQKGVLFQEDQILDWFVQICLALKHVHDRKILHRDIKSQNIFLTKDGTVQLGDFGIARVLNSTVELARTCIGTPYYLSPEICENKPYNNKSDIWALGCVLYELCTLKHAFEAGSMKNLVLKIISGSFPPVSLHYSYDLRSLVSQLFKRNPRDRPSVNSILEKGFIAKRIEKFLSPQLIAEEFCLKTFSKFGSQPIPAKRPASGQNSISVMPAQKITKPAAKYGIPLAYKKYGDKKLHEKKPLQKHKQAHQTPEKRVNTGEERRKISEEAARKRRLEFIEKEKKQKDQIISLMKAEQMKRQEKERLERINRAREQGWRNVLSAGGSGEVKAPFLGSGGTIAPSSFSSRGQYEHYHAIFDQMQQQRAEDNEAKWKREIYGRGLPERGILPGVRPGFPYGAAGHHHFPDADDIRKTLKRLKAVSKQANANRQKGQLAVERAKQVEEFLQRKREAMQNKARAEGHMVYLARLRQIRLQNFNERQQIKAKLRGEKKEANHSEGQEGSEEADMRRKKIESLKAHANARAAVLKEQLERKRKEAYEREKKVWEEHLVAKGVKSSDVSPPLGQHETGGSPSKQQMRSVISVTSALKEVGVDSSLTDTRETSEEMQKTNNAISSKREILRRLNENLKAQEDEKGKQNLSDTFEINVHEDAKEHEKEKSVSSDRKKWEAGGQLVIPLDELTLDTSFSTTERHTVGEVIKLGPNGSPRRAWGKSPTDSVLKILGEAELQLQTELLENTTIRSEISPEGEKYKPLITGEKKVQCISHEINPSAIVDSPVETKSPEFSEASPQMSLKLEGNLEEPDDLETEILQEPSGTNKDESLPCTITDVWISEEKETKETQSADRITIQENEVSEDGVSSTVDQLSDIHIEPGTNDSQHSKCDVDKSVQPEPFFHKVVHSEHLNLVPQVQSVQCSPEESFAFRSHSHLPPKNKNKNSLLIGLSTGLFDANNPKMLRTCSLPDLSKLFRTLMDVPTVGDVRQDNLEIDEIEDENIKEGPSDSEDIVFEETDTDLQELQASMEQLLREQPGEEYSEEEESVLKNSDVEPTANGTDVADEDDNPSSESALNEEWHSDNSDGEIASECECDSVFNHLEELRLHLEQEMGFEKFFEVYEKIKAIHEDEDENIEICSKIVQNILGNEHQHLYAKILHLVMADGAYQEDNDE

[6] = biological target: Angiopoietin-1 receptor (Homo sapiens) (UniProt Q02763); test: Inhibition of TEK (unknown origin) at 500 nM
Angiopoietin-1 receptor (Homo sapiens), sequence (Q02763 whole entry): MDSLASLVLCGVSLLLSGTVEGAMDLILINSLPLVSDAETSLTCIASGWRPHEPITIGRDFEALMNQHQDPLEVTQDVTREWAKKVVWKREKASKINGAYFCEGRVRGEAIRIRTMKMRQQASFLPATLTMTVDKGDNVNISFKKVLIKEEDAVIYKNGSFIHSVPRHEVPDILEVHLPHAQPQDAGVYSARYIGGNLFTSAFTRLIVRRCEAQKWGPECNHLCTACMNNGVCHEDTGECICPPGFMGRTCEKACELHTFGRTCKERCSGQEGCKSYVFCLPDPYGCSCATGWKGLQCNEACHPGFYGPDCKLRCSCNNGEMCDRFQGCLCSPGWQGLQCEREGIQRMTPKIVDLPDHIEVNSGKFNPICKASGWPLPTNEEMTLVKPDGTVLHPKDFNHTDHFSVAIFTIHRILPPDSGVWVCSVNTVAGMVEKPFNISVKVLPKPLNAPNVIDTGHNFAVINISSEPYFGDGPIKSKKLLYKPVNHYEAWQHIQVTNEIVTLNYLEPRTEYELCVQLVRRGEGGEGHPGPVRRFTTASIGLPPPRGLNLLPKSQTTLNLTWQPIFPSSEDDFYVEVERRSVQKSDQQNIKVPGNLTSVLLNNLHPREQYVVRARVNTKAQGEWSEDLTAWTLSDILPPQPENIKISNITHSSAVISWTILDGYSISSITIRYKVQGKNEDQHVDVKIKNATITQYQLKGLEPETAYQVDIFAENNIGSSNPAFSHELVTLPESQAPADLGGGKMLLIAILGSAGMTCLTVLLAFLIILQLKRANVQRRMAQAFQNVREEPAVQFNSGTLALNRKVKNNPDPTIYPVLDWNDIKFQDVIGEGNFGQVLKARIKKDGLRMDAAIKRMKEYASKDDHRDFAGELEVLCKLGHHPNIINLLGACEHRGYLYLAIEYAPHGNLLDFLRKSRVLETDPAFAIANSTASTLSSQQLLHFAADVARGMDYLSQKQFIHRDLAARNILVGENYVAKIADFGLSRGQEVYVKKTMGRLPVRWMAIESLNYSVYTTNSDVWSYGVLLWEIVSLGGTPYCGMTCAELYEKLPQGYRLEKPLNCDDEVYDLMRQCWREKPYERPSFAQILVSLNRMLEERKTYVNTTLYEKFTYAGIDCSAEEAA

[7] = Toxicity in zebrafish embryo assessed as survival for 3.5 days; assay type: organism-based, Danio rerio; conditions: in vivo
[8] = Toxicity in zebrafish embryo assessed as morphological defects for 3.5 days; assay type: organism-based, Danio rerio
Danio rerio [9] = organism: Danio rerio; test: Toxicity in zebrafish embryo assessed as effect on morphology upto 25 uM; assay type: organism-based; conditions: in vivo
Danio rerio [10] = organism: Danio rerio; test: Toxicity in zebrafish embryo assessed as kinked tails at 50 and 100 uM; assay type: organism-based; conditions: in vivo
[11] = Antiproliferative activity against human PC9 cells after 96 hrs by Sytox green marker based fluorescence analysis; assay type: functional, cell-based; conditions: PC-9, 96 h
[12] = Antiproliferative activity against human Calu3 cells after 72 hrs by CellTiter blue assay; assay type: functional, cell-based; conditions: Calu-3, 72 h
[13] = Antiproliferative activity against human BT474 cells after 72 hrs by CellTiter blue assay; assay type: functional, cell-based; conditions: BT-474, 72 h
[14] = Antiproliferative activity against human Hs578T cells after 72 hrs by CellTiter-Glo assay; assay type: functional, cell-based; conditions: Hs-578T
[15] = Antiproliferative activity against human SKBR3 cells after 72 hrs by CellTiter blue assay; assay type: functional, cell-based; conditions: SK-BR-3, 72 h
[16] = Antiproliferative activity against human OVCAR3 cells after 72 hrs by CellTiter-Glo assay; assay type: functional, cell-based; conditions: OVCAR-3, 72 h
SW480 = test: Antiproliferative activity against human SW480 cells after 72 hrs by CellTiter-Glo assay; assay type: functional, cell-based; conditions: SW480, 72 h
H9 = test: Antiproliferative activity against human H9 cells after 72 hrs by CellTiter-Glo assay; assay type: functional, cell-based; conditions: H9, 72 h
[17] = Antiproliferative activity against human U937 cells after 72 hrs by CellTiter blue assay; assay type: functional, cell-based; conditions: U-937, 72 h
FaDu = test: Antiproliferative activity against human FADU cells; assay type: functional, cell-based
MRC5 = test: Antiproliferative activity against human MRC5 cells after 72 hrs by CellTiter-Glo assay; assay type: cell-based; conditions: MRC5, 72 h
[18] = Aqueous solubility of compound in 0.01 M PBS buffer at pH 7.4 after 2 hrs by turbidimetric assay; assay type: physicochemical
in vitro = conditions: human, Caco-2
Description: Efflux ratio of permeability from basolateral to apical side over apical to basolateral side in human Caco2 cells at 10 uM by LC-MS/MS analysis

Serine/threonine-protein kinase B-raf (Homo sapiens), sequence (P15056 whole entry): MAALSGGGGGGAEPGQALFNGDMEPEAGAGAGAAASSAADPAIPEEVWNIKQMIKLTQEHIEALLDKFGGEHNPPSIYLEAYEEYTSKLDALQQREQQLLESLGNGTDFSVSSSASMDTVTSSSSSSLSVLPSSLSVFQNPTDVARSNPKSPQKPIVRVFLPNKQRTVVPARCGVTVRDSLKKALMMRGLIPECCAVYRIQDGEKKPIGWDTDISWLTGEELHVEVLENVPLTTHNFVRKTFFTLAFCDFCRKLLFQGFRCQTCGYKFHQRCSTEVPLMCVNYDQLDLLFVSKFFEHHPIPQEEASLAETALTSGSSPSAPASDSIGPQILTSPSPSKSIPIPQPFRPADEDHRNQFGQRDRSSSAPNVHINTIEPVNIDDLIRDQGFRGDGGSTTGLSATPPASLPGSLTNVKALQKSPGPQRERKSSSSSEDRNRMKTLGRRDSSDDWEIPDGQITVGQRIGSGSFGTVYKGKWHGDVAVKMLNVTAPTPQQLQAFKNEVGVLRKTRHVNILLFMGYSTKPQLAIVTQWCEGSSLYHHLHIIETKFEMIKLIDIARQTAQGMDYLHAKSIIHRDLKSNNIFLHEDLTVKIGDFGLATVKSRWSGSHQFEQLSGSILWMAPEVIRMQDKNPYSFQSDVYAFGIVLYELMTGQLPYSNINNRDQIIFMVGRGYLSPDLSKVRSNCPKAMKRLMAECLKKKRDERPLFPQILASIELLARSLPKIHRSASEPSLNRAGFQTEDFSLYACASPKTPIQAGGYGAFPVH

Compound | inhibition [1] [%] | inhibition [2] [%] | inhibition [3] [%] | inhibition [4] [%] | inhibition [5] [%] | inhibition [6] [%] | solubility kinetic at 2 h [18] [µM] | also measured
C[C@@H](Nc1ncnc2sc(-c3ccc(C(=O)NCCN(C)C)cc3)cc12)c1ccccc1 | 23 | -6 | 8 | -5 | 4 | 3 | – | –
COc1cc(C(N)=O)ccc1-c1cc2c(N[C@H](CO)c3ccccc3)ncnc2s1 | 25 | – | 6 | -9 | 3 | 7 | – | LC50 at 84 h [7]: > 100 µM; EC50 at 3.5 days [8]: 46 µM; Activity (Danio rerio [9]): Non-toxic; Activity (Danio rerio [10]): Toxic
COc1cc(CO)ccc1-c1cc2c(N[C@H](CO)c3ccccc3)ncnc2s1 | 20 | 15 | 3 | 1 | 13 | 13 | – | IC50 [11]: 0.09 µM; IC50 [12]: 4.2 µM; IC50 [13]: 11 µM; IC50 [14]: 43 µM; IC50 [15]: 17 µM; IC50 [16]: 9.7 µM; IC50 (SW480): 19 µM; IC50 (H9): 12 µM; IC50 [17]: 18 µM; IC50 (FaDu): 43 µM; IC50 (MRC5): 37 µM; LC50 at 84 h [7]: > 100 µM; EC50 at 3.5 days [8]: 49 µM; Activity (Danio rerio [9]): Non-toxic; Activity (Danio rerio [10]): Toxic
COc1cc(CO)ccc1-c1cc2c(Nc3ccc(F)c(Cl)c3)ncnc2s1 | 3 | – | 4 | 1 | – | 11 | 2 (≈ 0.832 µg/mL) | –
CN(C)CCNC(=O)c1ccc(-c2cc3c(N[C@H](CO)c4ccccc4)ncnc3s2)cc1 | 7 | -5 | 0 | 1 | – | 9 | 65 (≈ 30 µg/mL) | efflux ratio at 10 µM (in vitro): > 20
C[C@@H](Nc1ncnc2sc(-c3ccccc3C(N)=O)cc12)c1ccccc1 | 21 | -4 | 3 | -7 | 3 | 0 | – | –
C#Cc1cccc(Nc2ncnc3sc(-c4ccc(CO)cc4OC)cc23)c1 | 16 | -3 | -1 | – | -6 | -1 | – | –
C#Cc1cccc(Nc2ncnc3cc(OCCOC)c(OCCOC)cc23)c1 [ERLOTINIB] | – | -7 | 38 | – | -8 | 5 | 20 (≈ 7.87 µg/mL) | IC50 [11]: 0.07 µM; IC50 [12]: 4.7 µM; IC50 [13]: 13 µM; IC50 [14]: > 100 µM; IC50 [15]: > 100 µM; IC50 [16]: 4.6 µM; IC50 (SW480): > 100 µM; IC50 (H9): 1.3 µM; IC50 [17]: 9.9 µM; IC50 (FaDu): 18 µM; IC50 (MRC5): 5.8 µM; EC50 at 3.5 days [8]: 60 µM; Activity (Danio rerio [9]): Non-toxic; Activity (Danio rerio [10]): Toxic

The next lines start with results.

inhibition [1] [%] | inhibition [2] [%] | inhibition [3] [%] | inhibition [4] [%] | inhibition [5] [%] | inhibition [6] [%] | solubility kinetic at 2 h [18] [µM] | Compound | also measured
11 | – | 15 | 11 | -5 | 8 | – | COc1cc(CO)ccc1-c1cc2c(Nc3ccccc3)ncnc2s1 | –
7 | -8 | 6 | -1 | -4 | -3 | > 100 | COc1ccc(C(=O)NCCN(C)C)cc1-c1cc2c(N[C@H](C)c3ccccc3)ncnc2s1 | efflux ratio at 10 µM (in vitro): 63
1 | 1 | 2 | 7 | 1 | 1 | – | COc1cc(CO)ccc1-c1cc2c(N[C@H](C)c3ccccc3)ncnc2s1 | –
